Assay results as given in the supplement of paper PMC10307832.

What was measured:
Assay in all cases: relative viability (nuclei count vs DMSO), 5 days (fraction); higher = more cells survive
RERF-LC-KJ = system: RERF-LC-KJ
Outline: (§1)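 Medians of duplicate plates are given as relative viability. That measure is the nuclei count in treated wells divided by the count in vehicle wells. Counts were taken on 4× images of lung cancer cell lines in 1536-well plates, 5 days after pin-tool dosing the day after seeding with one drug alone or a fixed anchor-drug dose plus five library-drug doses (not always all listed) in √10 steps.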

NCI-H1755 = system: NCI-H1755
Outline: as §1

HOP-62 = system: HOP-62
Outline: as §1

A-427 = system: A-427
Outline: as §1

NCI-H647 = system: NCI-H647
Outline: as §1

NCI-H2228 = system: NCI-H2228
Outline: as §1

NCI-H358 = system: NCI-H358
Outline: as §1

LC-2-ad = system: LC-2-ad
Outline: as §1

NCI-H1734 = system: NCI-H1734
Outline: as §1

NCI-H1915 = system: NCI-H1915
Outline: as §1

LXF-289 = system: LXF-289
Outline: as §1

PC-3 [JPC-3] = system: PC-3 [JPC-3]
Outline: as §1

NCI-H1792 = system: NCI-H1792
Outline: as §1

HCC-15 = system: HCC-15
Outline: as §1

SW 1573 = system: SW 1573
Outline: as §1

NCI-H2126 = system: NCI-H2126
Outline: as §1

SK-LU-1 = system: SK-LU-1
Outline: as §1

NCI-H2347 = system: NCI-H2347
Outline: as §1

HCC-78 = system: HCC-78
Outline: as §1

NCI-H1975 = system: NCI-H1975
Outline: as §1

CCN(CC)CCCCNc1ncc2cc(-c3cc(OC)cc(OC)c3)c(NC(=O)NC(C)(C)C)nc2n1 + C[C@@H](Oc1cc(-c2cnn(C3CCNCC3)c2)cnc1N)c1c(Cl)ccc(F)c1Cl [Crizotinib] (partner 1 µM)
relative viability (RERF-LC-KJ; first compound 0.01 µM): 0.84 | relative viability (RERF-LC-KJ; first compound 0.03162 µM): 0.818 | relative viability (RERF-LC-KJ; first compound 0.1 µM): 1.13 | relative viability (RERF-LC-KJ; first compound 0.3162 µM): 0.916 | relative viability (RERF-LC-KJ; first compound 1 µM): 0.816 | relative viability (NCI-H1755; first compound 0.01 µM): 0.928 | relative viability (NCI-H1755; first compound 0.03162 µM): 0.94 | relative viability (NCI-H1755; first compound 0.1 µM): 1.17 | relative viability (NCI-H1755; first compound 0.3162 µM): 0.984 | relative viability (NCI-H1755; first compound 1 µM): 0.892 | relative viability (HOP-62; first compound 0.01 µM): 0.967 | relative viability (HOP-62; first compound 0.03162 µM): 1.14 | relative viability (HOP-62; first compound 0.1 µM): 0.903 | relative viability (HOP-62; first compound 0.3162 µM): 1.08 | relative viability (HOP-62; first compound 1 µM): 1.08 | relative viability (A-427; first compound 0.01 µM): 0.886 | relative viability (A-427; first compound 0.03162 µM): 0.812 | relative viability (A-427; first compound 0.1 µM): 0.875 | relative viability (A-427; first compound 0.3162 µM): 0.909 | relative viability (A-427; first compound 1 µM): 0.727 | relative viability (NCI-H647; first compound 0.01 µM): 1.06 | relative viability (NCI-H647; first compound 0.03162 µM): 1.08 | relative viability (NCI-H647; first compound 0.1 µM): 1.53 | relative viability (NCI-H647; first compound 0.3162 µM): 1.3 | relative viability (NCI-H647; first compound 1 µM): 0.774 | relative viability (NCI-H2228; first compound 0.01 µM): 0.408 | relative viability (NCI-H2228; first compound 0.03162 µM): 0.564 | relative viability (NCI-H2228; first compound 0.1 µM): 0.348 | relative viability (NCI-H2228; first compound 0.3162 µM): 0.358 | relative viability (NCI-H2228; first compound 1 µM): 0.243 | relative viability (NCI-H358; first compound 0.01 µM): 0.639 | relative viability (NCI-H358; first compound 0.03162 µM): 0.54 | relative viability (NCI-H358; first compound 0.1 µM): 0.728 | relative viability (NCI-H358; first compound 0.3162 µM): 0.671 | relative viability (NCI-H358; first compound 1 µM): 0.469 | relative viability (LC-2-ad; first compound 0.01 µM): 0.834 | relative viability (LC-2-ad; first compound 0.03162 µM): 0.503 | relative viability (LC-2-ad; first compound 0.1 µM): 0.49 | relative viability (LC-2-ad; first compound 0.3162 µM): 0.488 | relative viability (LC-2-ad; first compound 1 µM): 0.39 | relative viability (NCI-H1734; first compound 0.01 µM): 0.652 | relative viability (NCI-H1734; first compound 0.03162 µM): 0.647 | relative viability (NCI-H1734; first compound 0.1 µM): 0.807 | relative viability (NCI-H1734; first compound 0.3162 µM): 0.719 | relative viability (NCI-H1734; first compound 1 µM): 0.667 | relative viability (NCI-H1915; first compound 0.01 µM): 1.1 | relative viability (NCI-H1915; first compound 0.03162 µM): 0.926 | relative viability (NCI-H1915; first compound 0.1 µM): 0.943 | relative viability (NCI-H1915; first compound 0.3162 µM): 1.03 | relative viability (NCI-H1915; first compound 1 µM): 0.935 | relative viability (LXF-289; first compound 0.01 µM): 0.836 | relative viability (LXF-289; first compound 0.03162 µM): 0.817 | relative viability (LXF-289; first compound 0.1 µM): 0.916 | relative viability (LXF-289; first compound 0.3162 µM): 0.824 | relative viability (LXF-289; first compound 1 µM): 0.696 | relative viability (PC-3 [JPC-3]; first compound 0.01 µM): 1 | relative viability (PC-3 [JPC-3]; first compound 0.03162 µM): 1.01 | relative viability (PC-3 [JPC-3]; first compound 0.1 µM): 1.04 | relative viability (PC-3 [JPC-3]; first compound 0.3162 µM): 1.04 | relative viability (PC-3 [JPC-3]; first compound 1 µM): 0.889 | relative viability (NCI-H1792; first compound 0.01 µM): 1.07 | relative viability (NCI-H1792; first compound 0.03162 µM): 1.02 | relative viability (NCI-H1792; first compound 0.1 µM): 1.33 | relative viability (NCI-H1792; first compound 0.3162 µM): 1.41 | relative viability (NCI-H1792; first compound 1 µM): 0.541 | relative viability (HCC-15; first compound 0.01 µM): 0.919 | relative viability (HCC-15; first compound 0.03162 µM): 0.853 | relative viability (HCC-15; first compound 0.1 µM): 0.871 | relative viability (HCC-15; first compound 0.3162 µM): 1.25 | relative viability (HCC-15; first compound 1 µM): 0.699 | relative viability (SW 1573; first compound 0.01 µM): 0.69 | relative viability (SW 1573; first compound 0.03162 µM): 0.813 | relative viability (SW 1573; first compound 0.1 µM): 1.05 | relative viability (SW 1573; first compound 0.3162 µM): 0.774 | relative viability (SW 1573; first compound 1 µM): 0.722 | relative viability (NCI-H2126; first compound 0.01 µM): 1.08 | relative viability (NCI-H2126; first compound 0.03162 µM): 0.992 | relative viability (NCI-H2126; first compound 0.1 µM): 1.06 | relative viability (NCI-H2126; first compound 0.3162 µM): 1.08 | relative viability (NCI-H2126; first compound 1 µM): 1.04 | relative viability (SK-LU-1; first compound 0.01 µM): 0.908 | relative viability (SK-LU-1; first compound 0.03162 µM): 1.02 | relative viability (SK-LU-1; first compound 0.1 µM): 0.901 | relative viability (SK-LU-1; first compound 0.3162 µM): 1 | relative viability (SK-LU-1; first compound 1 µM): 0.641 | relative viability (NCI-H2347; first compound 0.01 µM): 0.766 | relative viability (NCI-H2347; first compound 0.03162 µM): 0.62 | relative viability (NCI-H2347; first compound 0.1 µM): 0.677 | relative viability (NCI-H2347; first compound 0.3162 µM): 0.63 | relative viability (NCI-H2347; first compound 1 µM): 0.793 | relative viability (HCC-78; first compound 0.03162 µM): 0.318 | relative viability (HCC-78; first compound 0.1 µM): 0.347 | relative viability (HCC-78; first compound 0.3162 µM): 0.368 | relative viability (HCC-78; first compound 1 µM): 0.299 | relative viability (NCI-H1975; first compound 0.01 µM): 1.35 | relative viability (NCI-H1975; first compound 0.03162 µM): 1.02 | relative viability (NCI-H1975; first compound 0.1 µM): 1.05 | relative viability (NCI-H1975; first compound 0.3162 µM): 0.94 | relative viability (NCI-H1975; first compound 1 µM): 0.82
